# How the values were obtained:
# blackgrass [1] = test: Test Example 4: herbicidal effect by soil treatment (Table 19, symbol J); assay type: in vivo, blackgrass (Alopecurus myosuroides); details: amount of applied herbicide 320 g/ha
# Summary of the method: (§1)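 Scoring uses the grading scale of an earlier test, three weeks post-application. Treatment consists of spraying a diluted emulsion formulation across the surface of sterilized diluvial soil in which seeds are buried near 1.5 cm deep; boxes are kept in a greenhouse between 25° C. and 30° C.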
# chickweed = test: Test Example 4: herbicidal effect by soil treatment (Table 19, symbol P); assay type: in vivo, common chickweed (Stellaria media); details: amount of applied herbicide 320 g/ha
# Summary of the method: as §1
# oval-leafed pondweed = test: Test Example 1: herbicidal activity, application before weed generation under submerged conditions (Table 16, symbol C); assay type: in vivo, oval-leafed pondweed (Monochoria vaginalis)
# Summary of the method: (§2)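 Alluvial soil was flooded to 4 cm depth, weed seeds were sown mixed and 2.5-leaf rice seedlings were transplanted. On sowing day, the compound's emulsion, diluted in water to a set dose, was applied to the water surface. Plants grew at 25–30 °C and were scored 0–5 after three weeks.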
# wild oat [2] = test: Test Example 4: herbicidal effect by soil treatment (Table 19, symbol I); assay type: in vivo, wild oat (Avena fatua); details: amount of applied herbicide 320 g/ha
# Summary of the method: as §1
# redroot pigweed = test: Test Example 4: herbicidal effect by soil treatment (Table 19, symbol N); assay type: in vivo, redroot pigweed (Amaranthus retroflexus); details: amount of applied herbicide 320 g/ha
# Summary of the method: as §1
# persian speedwell [3] = test: Test Example 4: herbicidal effect by soil treatment (Table 19, symbol R); assay type: in vivo, Persian speedwell (Veronica persica); details: amount of applied herbicide 320 g/ha
# Summary of the method: as §1
# late watergrass = test: Test Example 1: herbicidal activity, application before weed generation under submerged conditions (Table 16, symbol A); assay type: in vivo, late watergrass (Echinochloa oryzicola)
# Summary of the method: as §2
# rice flat sedge = test: Test Example 3: herbicidal effect by foliage application, Wagner pot (Table 18, symbol E); assay type: in vivo, rice flat sedge (Cyperus iria)
# Summary of the method: (§3)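 Plants were sown in alluvial soil held under 0.1–0.5 cm standing water and grown 14 days in a greenhouse at 25–30 °C. An emulsifiable formulation, water-diluted to the set dose, was then sprayed onto the foliage, and effects were scored three weeks later using previously defined criteria.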
# barnyard grass [4] = test: Test Example 4: herbicidal effect by soil treatment (Table 19, symbol H); assay type: in vivo, barnyard grass (Echinochloa crus-galli); details: amount of applied herbicide 320 g/ha
# Summary of the method: as §1
# Chinese sprangletop = test: Test Example 3: herbicidal effect by foliage application, Wagner pot (Table 18, symbol D); assay type: in vivo, chinese sprangletop (Leptochloa chinensis)
# Summary of the method: as §3
# southern crabgrass [5] = test: Test Example 4: herbicidal effect by soil treatment (Table 19, symbol F); assay type: in vivo, southern crabgrass (Digitaria ciliaris); details: amount of applied herbicide 320 g/ha
# Summary of the method: as §1
# Japanese bulrush = test: Test Example 1: herbicidal activity, application before weed generation under submerged conditions (Table 16, symbol B); assay type: in vivo, Japanese bulrush (Schoenoplectus juncoides)
# Summary of the method: as §2
# lambsquarters [6] = test: Test Example 4: herbicidal effect by soil treatment (Table 19, symbol O); assay type: in vivo, lambsquarters (Chenopodium album); details: amount of applied herbicide 320 g/ha
# Summary of the method: as §1
# green foxtail [7] = test: Test Example 4: herbicidal effect by soil treatment (Table 19, symbol G); assay type: in vivo, green foxtail (Setaria viridis); details: amount of applied herbicide 320 g/ha
# Summary of the method: as §1
# Italian ryegrass [8] = test: Test Example 4: herbicidal effect by soil treatment (Table 19, symbol K); assay type: in vivo, Italian ryegrass (Lolium multiflorum); details: amount of applied herbicide 320 g/ha
# Summary of the method: as §1
# windgrass = test: Test Example 4: herbicidal effect by soil treatment (Table 19, symbol L); assay type: in vivo, windgrass (Apera spica-venti); details: amount of applied herbicide 320 g/ha
# Summary of the method: as §1
# barnyard grass [9] = test: Test Example 3: herbicidal effect by foliage application, Wagner pot (Table 18, symbol H); assay type: in vivo, barnyard grass (Echinochloa crus-galli)
# Summary of the method: as §3
# velvetleaf [10] = test: Test Example 4: herbicidal effect by soil treatment (Table 19, symbol M); assay type: in vivo, velvetleaf (Abutilon theophrasti); details: amount of applied herbicide 320 g/ha
# Summary of the method: as §1
# wild oat [11] = test: Test Example 5: herbicidal effect by foliage application, plastic box (Table 20, symbol I); assay type: in vivo, wild oat (Avena fatua); details: foliage application, 320 g/ha, three weeks after application
# Summary of the method: (§4)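 Post-emergence foliar test in sterilized diluvial soil. Compound applied as water-diluted emulsion at a predetermined rate to 14-day-old plants; evaluation at three weeks.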
# velvetleaf [12] = test: Test Example 5: herbicidal effect by foliage application, plastic box (Table 20, symbol M); assay type: in vivo, velvetleaf (Abutilon theophrasti); details: foliage application, 320 g/ha, three weeks after application
# Summary of the method: as §4
# persian speedwell [13] = test: Test Example 5: herbicidal effect by foliage application, plastic box (Table 20, symbol R); assay type: in vivo, Persian speedwell (Veronica persica); details: foliage application, 320 g/ha, three weeks after application
# Summary of the method: as §4
# blackgrass [14] = test: Test Example 5: herbicidal effect by foliage application, plastic box (Table 20, symbol J); assay type: in vivo, blackgrass (Alopecurus myosuroides); details: foliage application, 320 g/ha, three weeks after application
# Summary of the method: as §4
# green foxtail [15] = test: Test Example 5: herbicidal effect by foliage application, plastic box (Table 20, symbol G); assay type: in vivo, green foxtail (Setaria viridis); details: foliage application, 320 g/ha, three weeks after application
# Summary of the method: as §4
# southern crabgrass [16] = test: Test Example 5: herbicidal effect by foliage application, plastic box (Table 20, symbol F); assay type: in vivo, southern crabgrass (Digitaria ciliaris); details: foliage application, 320 g/ha, three weeks after application
# Summary of the method: as §4
# barnyard grass [17] = test: Test Example 5: herbicidal effect by foliage application, plastic box (Table 20, symbol H); assay type: in vivo, barnyard grass (Echinochloa crus-galli); details: foliage application, 320 g/ha, three weeks after application
# Summary of the method: as §4
# lambsquarters [18] = test: Test Example 5: herbicidal effect by foliage application, plastic box (Table 20, symbol O); assay type: in vivo, lambsquarters (Chenopodium album); details: foliage application, 320 g/ha, three weeks after application
# Summary of the method: as §4
# Italian ryegrass [19] = test: Test Example 5: herbicidal effect by foliage application, plastic box (Table 20, symbol K); assay type: in vivo, Italian ryegrass (Lolium multiflorum); details: foliage application, 320 g/ha, three weeks after application
# Summary of the method: as §4
# [20] = amount of applied herbicide 320 g/ha
compound,measurement,setting,value
CCCC(=O)Oc1c(C)nn(C)c(=O)c1-c1c(-c2cnccc2Cl)sc2ccc(F)cc12 [2-386],"herbicidal effect, J: blackgrass",blackgrass [1],0 (Herbicidal rate of 5% or less (almost no effect))
same,"herbicidal effect, P: chickweed",chickweed,5 (Herbicidal rate of 90% or more (almost completely withered))
same,Herbicidal effect on C: oval-leafed pondweed (grade 0-5),oval-leafed pondweed; 320 g/ha applied herbicide,0 (Herbicidal rate of 5% or less (almost no effect))
same,"herbicidal effect, I: wild oat",wild oat [2],1 (Herbicidal rate of 5% or more and less than 20%)
same,"herbicidal effect, N: redroot pigweed",redroot pigweed,4 (Herbicidal rate of 70% or more and less than 90%)
same,"herbicidal effect, R: persian speedwell",persian speedwell [3],5 (Herbicidal rate of 90% or more (almost completely withered))
same,Herbicidal effect on A: late watergrass (grade 0-5),late watergrass; 320 g/ha applied herbicide,2 (Herbicidal rate of 20% or more and less than 40%)
same,herbicidal effect on E: rice flat sedge,rice flat sedge; [20],3 (Herbicidal rate of 40% or more and less than 70%)
same,"herbicidal effect, H: barnyard grass",barnyard grass [4],4 (Herbicidal rate of 70% or more and less than 90%)
same,herbicidal effect on D: Chinese sprangletop,Chinese sprangletop; [20],4 (Herbicidal rate of 70% or more and less than 90%)
same,"herbicidal effect, F: southern crabgrass",southern crabgrass [5],4 (Herbicidal rate of 70% or more and less than 90%)
same,Herbicidal effect on B: Japanese bulrush (grade 0-5),Japanese bulrush; 320 g/ha applied herbicide,0 (Herbicidal rate of 5% or less (almost no effect))
same,"herbicidal effect, O: lambsquarters",lambsquarters [6],4 (Herbicidal rate of 70% or more and less than 90%)
same,"herbicidal effect, G: green foxtail",green foxtail [7],3 (Herbicidal rate of 40% or more and less than 70%)
same,"herbicidal effect, K: Italian ryegrass",Italian ryegrass [8],4 (Herbicidal rate of 70% or more and less than 90%)
same,"herbicidal effect, L: windgrass",windgrass,2 (Herbicidal rate of 20% or more and less than 40%)
same,herbicidal effect on H: barnyard grass,barnyard grass [9]; [20],5 (Herbicidal rate of 90% or more (almost completely withered))
same,"herbicidal effect, M: velvetleaf",velvetleaf [10],1 (Herbicidal rate of 5% or more and less than 20%)
CCOc1cc(F)ccc1-c1sc2cc(OC)c(Cl)cc2c1-c1c(O)c(C)nn(C)c1=O [5-077],herbicidal effect on wild oat (I),wild oat [11],3 (Herbicidal rate of 40% or more and less than 70%)
same,"J: blackgrass, herbicidal effect grade",blackgrass [1],0 (Herbicidal rate of 5% or less (almost no effect))
same,herbicidal effect on velvetleaf (M),velvetleaf [12],3 (Herbicidal rate of 40% or more and less than 70%)
same,"P: chickweed, herbicidal effect grade",chickweed,0 (Herbicidal rate of 5% or less (almost no effect))
same,"Herbicidal effect, C: oval-leafed pondweed",oval-leafed pondweed; [20],4 (Herbicidal rate of 70% or more and less than 90%)
same,herbicidal effect on persian speedwell (R),persian speedwell [13],4 (Herbicidal rate of 70% or more and less than 90%)
same,"I: wild oat, herbicidal effect grade",wild oat [2],0 (Herbicidal rate of 5% or less (almost no effect))
same,"N: redroot pigweed, herbicidal effect grade",redroot pigweed,3 (Herbicidal rate of 40% or more and less than 70%)
same,"R: persian speedwell, herbicidal effect grade",persian speedwell [3],0 (Herbicidal rate of 5% or less (almost no effect))
same,"Herbicidal effect, A: late watergrass",late watergrass; [20],2 (Herbicidal rate of 20% or more and less than 40%)
same,herbicidal effect on rice flat sedge (E),rice flat sedge; 320 g/ha,4 (Herbicidal rate of 70% or more and less than 90%)
same,herbicidal effect on blackgrass (J),blackgrass [14],3 (Herbicidal rate of 40% or more and less than 70%)
same,herbicidal effect on green foxtail (G),green foxtail [15],5 (Herbicidal rate of 90% or more (almost completely withered))
same,"H: barnyard grass, herbicidal effect grade",barnyard grass [4],0 (Herbicidal rate of 5% or less (almost no effect))
same,herbicidal effect on Chinese sprangletop (D),Chinese sprangletop; 320 g/ha,2 (Herbicidal rate of 20% or more and less than 40%)
same,herbicidal effect on southern crabgrass (F),southern crabgrass [16],5 (Herbicidal rate of 90% or more (almost completely withered))
same,"F: southern crabgrass, herbicidal effect grade",southern crabgrass [5],2 (Herbicidal rate of 20% or more and less than 40%)
same,"Herbicidal effect, B: Japanese bulrush",Japanese bulrush; [20],0 (Herbicidal rate of 5% or less (almost no effect))
same,herbicidal effect on barnyard grass (H),barnyard grass [17],5 (Herbicidal rate of 90% or more (almost completely withered))
same,"O: lambsquarters, herbicidal effect grade",lambsquarters [6],3 (Herbicidal rate of 40% or more and less than 70%)
same,"G: green foxtail, herbicidal effect grade",green foxtail [7],0 (Herbicidal rate of 5% or less (almost no effect))
same,"K: Italian ryegrass, herbicidal effect grade",Italian ryegrass [8],0 (Herbicidal rate of 5% or less (almost no effect))
same,herbicidal effect on lambsquarters (O),lambsquarters [18],5 (Herbicidal rate of 90% or more (almost completely withered))
same,"L: windgrass, herbicidal effect grade",windgrass,0 (Herbicidal rate of 5% or less (almost no effect))
same,herbicidal effect on barnyard grass (H),barnyard grass [9]; 320 g/ha,5 (Herbicidal rate of 90% or more (almost completely withered))
same,herbicidal effect on Italian ryegrass (K),Italian ryegrass [19],0 (Herbicidal rate of 5% or less (almost no effect))
same,"M: velvetleaf, herbicidal effect grade",velvetleaf [10],0 (Herbicidal rate of 5% or less (almost no effect))

# From US20230085307A1, “PYRIDAZINONE COMPOUND AND HERBICIDE” (NISSAN CHEMICAL CORPORATION, priority 2019, published 2023)
